Measurements from patent US9309514B2, “G protein-coupled purinergic receptor Gpr17 mediates orexigenic effects of FoxO1 in AgRP neurons” (THE TRUSTEES OF COLUMBIA UNIVERSITY IN THE CITY OF NEW YORK, priority 2012, dated 2016).

Experiments:
AgRP neurons [1] = assay: Patch-clamp electrophysiology of fluorescently labeled AgRP neurons in brain slices; assay type: cell-based, mice
Procedure: 300-μm coronal ARH slices were prepared from 6- to 8-week-old mice using ice cold sucrose-based cutting solution (adjusted to pH 7.3) containing (in mM): 10 NaCl, 25 NaHCO3, 195 sucrose, 5 glucose, 2.5 KCl, 1.25 NaH2PO4, 2 Na pyruvate, 0.5 CaCl2, and 7 MgCl2 bubbled continuously with 95% O2 and 5% CO2. Slices were allowed to recover at least 45 minutes at room temperature in recording solution (adjusted to pH 7.3) containing (in mM): 125 NaCl, 5 glucose, 25 NaHCO3, 2.5 KCl, 1.25 NaH2PO4, 2 CaCl2, and 1 MgCl2 bubbled continuously with 95% O2 and 5% CO2 before transferring them to a perfusion chamber for recording. Patch pipettes were pulled to resistances of 7-9 MΩ and filled them with solution (adjusted to pH 7.3) containing 128 K gluconate, 10 KCl, 10 HEPES, 0.1 EGTA, 2 MgCl2, 0.3 Na-GTP, and 3 Mg-ATP. Cells were selected using an upright microscope fitted with fluorescence optics (Nikon) and patched under IR-DIC optics. Electrical access was assessed in the whole-cell recording mode using a small-voltage step-pulse before and at the end of the current clamp recordings. Recordings were discarded in which the series resistance had been >15 MΩ. Current clamp recordings were acquired with no current injection using a MultiClamp 700B amplifier and Clampex data acquisition software (Axon Instruments). Action potential (AP) firing frequency, membrane potential, and AP amplitude using MiniAnalysis (Synaptosoft) were recorded at room temperature and analyzed. Electrophysiological recording to measure mEPSC and mIPSC in brain slices was performed as previously described (Pinto et al., 2004).
The electrophysiological properties of AgRP neurons identified using fluorescent reporters in brain slices from wild-type and Agrp-Foxo1^−/− mice (FIG. 5D-F) were studied. […] Furthermore, insulin suppressed the firing frequency of wild-type cells to ˜35% of basal level, a nearly three-fold reduction. Despite the lower basal firing frequency, insulin further suppressed the firing frequency of knockout neurons, with a 100-fold reduction. Insulin caused a similar reduction in membrane potential in wild-type and knockout cells (˜−20 mV).
Given the favorable metabolic profile of Agrp-Foxo1^−/− mice, experiments were designed to identify FoxO1 targets that mediate its effects and are readily targetable by chemical means. […] Next, Gpr17 regulation in ARH punch biopsies from fasted and refed mice was examined. […] To investigate the function of Gpr17 in AgRP neurons, the electrophysiological properties of fluorescently labeled AgRP neurons in response to the Gpr17 antagonist, cangrelor were tested. […] Therefore, inhibition of Gpr17 can affect the electrical activity of AgRP neurons in an insulin-mimetic fashion, supporting our hypothesis.

mice [2] = assay: Food intake after ICV (3rd ventricle) injection; assay type: in vivo
Excerpt: ELISA for leptin, insulin, and glucagon measurements (Millipore), and colorimetric assays for plasma free fatty acids and glycerol (Wako) were used.
The effect of delivering cangrelor into the 3rd ventricle of mice on food intake was studied.

Neuro2A (N2A) cells = assay: Insulin signaling (pAkt western blot) in wild type N2A cells treated with or without cangrelor; assay type: cell-based; conditions: serum starved overnight, stimulated with insulin
Procedure: FIG. 14. Neuro2A (N2A) cells are a suitable model for studying the molecular mechanisms of Gpr17 signaling. Wild type N2A cells (treated with or without cangrelor) were serum starved overnight and stimulated with insulin. Insulin signaling activity was gauged by measuring pAkt by western blot. N2A cells express minimal endogenous Gpr17.
More experiments were conducted to study the in vivo regulation of Gpr17 expression by FoxO1. It was discovered that Knocking out FoxO using Synapsin-Cre in mediobasal hypothalamus (MBH) caused a concomitant reduction of Gpr17, further showing that Gpr17 is the endogenous target of FoxO. FIG. 13, panel A. Moreover, Gpr17 expression was elevated in the hippocampus of insulin resistant diabetic GIRKO mice. FIG. 13, panel B. Further studies of Gpr17 expression showing that it contributes to the causality of diabetes, were conducted using Neuro2A (N2A) cells that express minimal endogenous Gpr17. Wild type N2A cells (treated with or without cangrelor) were serum starved overnight and then stimulated with insulin. Insulin signaling activity was gauged by measuring pAkt by western blot. […] FIG. 14.

[3] = in vivo; cited from earlier work
platelet = conditions: 4 μg/kg per minute IV, in approximately 70% of patients after 15 min; cited from earlier work
AgRP neurons [4] = assay: Immunohistochemistry of pSTAT3, pS6 and pAkt in AgRP or POMC neurons after delivery into the 3rd ventricle
Procedure: Stereotactic manipulations in 3-4 month-old C57BL/6 mice were performed. Cannulae were placed and allowed 1 week for recovery (−1.8 mm anterior and 0 mm lateral to bregma and 5.3 mm below the skull surface). Correct positioning of the cannulae was verified by monitoring drinking activity after angiotensin injection. […] For immunohistochemistry studies, mice 4-5 hr were perfused after refeeding.
To test whether Gpr17 function affects ARH hormonal signaling in vivo, cangrelor was delivered directly into the 3rd ventricle of mice after an overnight fast and the co-localization of pSTAT3, pS6, and pAkt was determined in either POMC or AgRP neurons, identified by fluorescent reporter, after refeeding.

mice [5] = assay: Glucose tolerance test / blood glucose after Gpr17 agonist administration; assay type: in vivo; conditions: 6 hr fast, test 20 minutes after administration (FIG. 12C)
Procedure: FIG. 12A-12D. […] (A) Satiated mice were injected with saline or Gpr17 agonist LTD4 (n=5-7). Food intake was monitored for the following time course. (B) Locomotor activity counts of satiated mice during daytime within 1.5 hours following administration of Gpr17 agonist LTD4 (n=6). (C) After fasting for 6 hrs, saline or LTD4 were administered to the mice (n=6-7). Glucose tolerance test was performed 20 minutes after the administration. […] Glucose was measured before or 20 minutes after the administration.

mouse Gpr17 = assay: siRNA knockdown of Gpr17 in Gpr17-mCherry stable line (diminished mCherry signal); assay type: cell-based; conditions: Gpr17-mCherry stable line transfected with RNAi construct
Excerpt: Seven siRNA sequences were designed based on the gene sequence of mouse Gpr17. DNA oligomers were ligated into a MSCV-P2Gm vector and verified by sequencing. The correct clones were used for further evaluation of the effectiveness of each RNAi construct. Gpr17-mCherry-stable line was transfected with each of the seven constructs. The effectiveness of RNAi was scored by the diminished mCherry signal in cells. […] The resultant adenovirus expresses RNAi upon Cre-dependent recombination. Seven oligomer sequences to generate Gpr17 RNAi. The 7 oligomers were ligated into the vector (MSCV-P2Gm) to generate RNAi specific for Gpr17 gene. The sequences are provided as following. The common adaptor sequence is provided, and the targeting siRNA (specific for mouse Gpr17) sequence is highlighted with underline.
In another series of experiments, siRNA sequences that knock down Gpr17 were identified. Seven candidate siRNA sequences conjugated to Gfp (green) and directed against mouse Gpr17 were cloned into a vector and their ability to inhibit Gpr17 expression was determined in Gpr17-mCherry stable line by their effectiveness in diminishing red fluorescence. Seven candidate sequences against mouse Gpr17 were cloned into vector. The resultant adenovirus expresses RNAi upon Cre-dependent recombination. Various degrees of knockdown of Gpr17 were achieved using siRNA.

[6] = cangrelor treatment (90 nM), same neurons before and after
[7] = 3rd ventricle, overnight fast, refeeding, in a subset of AgRP neurons
[8] = delivered into 3rd ventricle after overnight fast, determined after refeeding
[9] = insulin, wild-type AgRP neurons

For `CSCCNc1nc(SCCC(F)(F)F)nc2c1ncn2[C@@H]1O[C@H](COP(=O)(O)OP(=O)(O)C(Cl)(Cl)P(=O)(O)O)[C@@H](O)[C@H]1O` [cangrelor, [dichloro-[[[(2R,3S,4R,5R)-3,4-dihydroxy-5-[6-(2-methylsulfanylethylamino)-2-(3,3,3-trifluoropropylsulfanyl)purin-9-yl]oxolan-2-yl]methoxy-hydroxyphosphoryl]oxy-hydroxyphosphoryl]methyl]phosphonic acid], the “firing frequency of AgRP neurons” value (AgRP neurons [1]; [6]) was “significantly reduced”, the “membrane potential of AgRP neurons” value (AgRP neurons [1]; [6]) was “lower” and the “food intake during refeeding” value (mice [2]; Agrp-Foxo1−/− mice, overnight fast, cangrelor into 3rd ventricle) was “completely unaffected”. For the same molecule, the “insulin signaling (pAkt by western blot)” value (Neuro2A (N2A) cells) was “minimal effect”, the plasma half-life [3] was “three to six” and the platelet inhibition (platelet) was 100%. For the same molecule, the “pAkt and pS6 in POMC neurons” value (AgRP neurons [4]; 3rd ventricle, overnight fast, refeeding) was “without effecting detectable changes”, the “pAkt in AgRP neurons” value (AgRP neurons [4]; [7]) was “increased” and the “pS6 in AgRP neurons” value (AgRP neurons [4]; [7]) was “increased”. The “pSTAT3 content in AgRP neurons” value (AgRP neurons [4]; [8]) was “specifically and dramatically increased” and the “pSTAT3 content in POMC neurons” value (AgRP neurons [4]; [8]) was “not in POMC neurons”.

With “insulin: anorexigenic hormone applied to AgRP neurons in brain slices” the “fold reduction of firing frequency” value (AgRP neurons [1]; insulin, Agrp-Foxo1−/− (knockout) AgRP neurons) was 100 fold, the “firing frequency relative to basal level” value (AgRP neurons [1]; [9]) was ~35 % of basal level and the “fold reduction of firing frequency” value (AgRP neurons [1]; [9]) was “three”. The “reduction in membrane potential” value (AgRP neurons [1]; insulin, wild-type and knockout cells) was roughly −20 mV.

For `CCCCC/C=C\C\C=C/C=C/C=C/[C@@H](SC[C@H](N)C(=O)NCC(=O)O)[C@@H](O)CCCC(=O)O` [LTD4], the food intake (mice [2]; satiated mice injected with saline or LTD4 (FIG. 12A)) was “increases food intake”, the “glucose tolerance test / neuronal regulation of glucose homeostasis” value (mice [5]) was “impairs neuronal regulation of glucose homeostasis” and the “pSTAT3 content in AgRP neurons” value (AgRP neurons [4]; [8]) was “decreased”.

B1: SEQ ID NO. 7: oligomer ligated into MSCV-P2Gm vector to generate RNAi specific for mouse Gpr17 (nucleic acid)
DNA: TGCTGTTGACAGTGAGCGCCCGGATCACCTCCTGCCTCACTAGTGAAGCCACAGATGTAGTGAGGCAGGAGGTGATCCGGTTGCCTACTGCCTCGGA
With B1 the “effectiveness in knocking down Gpr17 expression (diminishing red fluorescence)” value (“effectiveness” for short) (mouse Gpr17) was “most effective”.

B2: SEQ ID NO. 6: oligomer ligated into MSCV-P2Gm vector to generate RNAi specific for mouse Gpr17 (nucleic acid)
DNA: TGCTGTTGACAGTGAGCGATGGCTTCCTCTTCTATCTGAATAGTGAAGCCACAGATGTATTCAGATAGAAGAGGAAGCCAGTGCCTACTGCCTCGGA
In the case of B2, the “effectiveness” value (mouse Gpr17) is reported as “most effective”.

B3: SEQ ID NO. 9: oligomer ligated into MSCV-P2Gm vector to generate RNAi specific for mouse Gpr17 (nucleic acid)
DNA: TGCTGTTGACAGTGAGCGAAACTGTACCGGGAGAAGGCCTTAGTGAAGCCACAGATGTAAGGCCTTC
In the case of B3, the “effectiveness” value (mouse Gpr17) is reported as “most effective”.
